The text below walks through data of ChEMBL document CHEMBL1126364, “A new class of leukotriene biosynthesis inhibitors: The discovery of MK0591” (Bioorg Med Chem Lett, 1992).

The target in experiment [1] is T1, Arachidonate 5-lipoxygenase-activating protein (Homo sapiens, UniProt P20292).
T1 sequence (P20292 whole entry): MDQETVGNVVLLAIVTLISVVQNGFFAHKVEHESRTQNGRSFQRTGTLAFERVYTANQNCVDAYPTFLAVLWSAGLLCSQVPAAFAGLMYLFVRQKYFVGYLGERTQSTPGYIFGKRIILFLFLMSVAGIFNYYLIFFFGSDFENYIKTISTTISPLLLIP
As to the kind of experiment: The compound was tested for the inhibition of binding of [125I]- L- 691,831 binding to 5-lipoxygenase activating protein (FLAP).

For experiment [2], the species on record is Homo sapiens. As to the kind of experiment: Leukotriene synthesis inhibition activity in the Human PMN assay. The format is functional, organism-based.
The species entered for experiment [3] is Homo sapiens. As to the kind of experiment: Leukotriene synthesis inhibition activity in the Human whole blood assay. The format is functional, organism-based.
Experiment [4] addresses T1, Arachidonate 5-lipoxygenase-activating protein. As to the kind of experiment: The compound was tested for the inhibition of binding of [125I]- L- 691,831 binding to 5-lipoxygenase activating protein.

pIC50: −log10 of the molar value.

In experiment [1], `O=C(O)CSC(CCCc1ccccc1)(CCc1ccccc1)c1ccc(OCc2ccc3ccccc3n2)cc1` (stereo not given) gave a pIC50 of 8.40.
For the molecule `c1ccc(COCC(OCc2ccccc2)c2ccc(OCc3ccc4ccccc4n3)cc2)cc1` (stereo not given), the pIC50 in the experiment filed under Homo sapiens [2] (Homo sapiens) was 7.52.
Consider `CC(C)c1ccc2c(c1)c(SC(C)(C)C)c(CC(C)(C)C(=O)O)n2Cc1ccc(Cl)cc1`, for which the results for the pIC50 (in experiment [1]; in the experiment listed under Homo sapiens [3]; in the experiment filed under Homo sapiens [2] (Homo sapiens)) were 7.64, 5.68 and 8.52, respectively.
With `Cc1c(CC(C)(C)C(=O)O)n(Cc2ccc(Cl)cc2)c2ccc(OCc3ccc4ccccc4n3)cc12`, the pIC50 in the experiment listed under Homo sapiens [2] (Homo sapiens) is 8.52.
In the experiment filed under Homo sapiens [2] (Homo sapiens), `COc1ccc2c(c1)c(C)c(CC(C)(C)C(=O)O)n2Cc1ccc(Cl)cc1` gave a pIC50 of 6.06.
With `O=C(O)CSC(CCCc1ccc(Cl)cc1)c1ccc(OCc2ccc3ccccc3n2)cc1` (single isomer, unassigned; (+)), the pIC50 in the experiment listed under Homo sapiens [2] was 8.30.
On the same count and under the same terms, the result for `O=C(O)CSC(CCCc1ccc(Cl)cc1)c1ccc(OCc2ccc3ccccc3n2)cc1` (single isomer, unassigned; (-)) reads 8.00.
Consider `O=C(O)CSC(CCCc1ccc(Cl)cc1)c1ccc(OCc2ccc3ccccc3n2)cc1` (stereo in doubt; 1), for which the pIC50 in experiment [1] is 6.91; in the experiment filed under Homo sapiens [3], less than 4.66; in the experiment filed under Homo sapiens [2], 7.70.
On to `CC(C)(C)Sc1c(CC(C)(C)C(=O)O)n(Cc2ccc(Cl)cc2)c2ccc(OCc3ccc4ccccc4n3)cc12` [QUIFLAPON], for which the pIC50 in experiment [4] was 8.70; in the experiment listed under Homo sapiens [3], 6.30; in the experiment filed under Homo sapiens [2] (Homo sapiens), 8.52.
